As a reminder, the IC50 is the concentration that inhibits the measured activity by half.

Sequence of Acetyl-coenzyme A synthetase, cytoplasmic (Q9NR19 whole entry): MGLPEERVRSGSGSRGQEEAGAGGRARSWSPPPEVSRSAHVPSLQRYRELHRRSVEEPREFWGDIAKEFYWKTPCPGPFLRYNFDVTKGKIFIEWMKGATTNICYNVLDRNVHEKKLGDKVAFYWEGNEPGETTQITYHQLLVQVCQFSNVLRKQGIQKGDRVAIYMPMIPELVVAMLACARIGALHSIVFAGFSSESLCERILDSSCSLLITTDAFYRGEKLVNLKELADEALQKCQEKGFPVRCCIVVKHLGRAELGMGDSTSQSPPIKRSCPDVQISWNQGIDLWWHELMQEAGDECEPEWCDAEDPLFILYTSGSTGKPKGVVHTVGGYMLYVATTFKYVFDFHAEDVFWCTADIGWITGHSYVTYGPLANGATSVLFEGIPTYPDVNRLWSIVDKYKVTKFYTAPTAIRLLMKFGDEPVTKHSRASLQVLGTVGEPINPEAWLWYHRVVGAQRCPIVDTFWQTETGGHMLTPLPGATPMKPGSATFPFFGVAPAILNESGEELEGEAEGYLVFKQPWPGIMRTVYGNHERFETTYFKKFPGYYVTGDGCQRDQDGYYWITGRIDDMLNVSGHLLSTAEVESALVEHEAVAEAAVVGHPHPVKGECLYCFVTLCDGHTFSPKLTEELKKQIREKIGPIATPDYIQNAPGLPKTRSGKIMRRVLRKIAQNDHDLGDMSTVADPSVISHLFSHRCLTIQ

This assay addresses Acetyl-coenzyme A synthetase, cytoplasmic (Homo sapiens, UniProt Q9NR19). Nature of the assay: Inhibition of ACSS2 in human MDA-MB-468 cells assessed as 13C-acetate incorporation incubated for 5 hrs measured under hypoxic conditions by LCMS analysis. Type of assay: cell-based.
As to `COc1ccc(N2N=C(C)C(C(=O)Nc3cccc(C(C)(F)F)c3)C2=O)cn1` (stereo unspecified), the 50% inhibitory concentration (IC50) is 5 nM. The value for `CCC(F)(F)c1cccc(NC(=O)C2C(=O)N(c3ccc(OC)cc3)N=C2C)c1` (stereo unspecified) was 0.463 nM.

For `COC(=O)c1cccc(N2N=C(C)C(C(=O)Nc3cccc(-c4ccco4)c3)C2=O)c1` (stereo unspecified), the IC50 amounted to 2.1 nM.

On to `CC1=NN(c2ccccc2)C(=O)C1C(=O)Nc1cccc(C(C)(F)F)c1` (stereo unspecified), for which the IC50 amounted to 4 nM. Turning to `COc1ccc(N2N=C(C)C(C(=O)Nc3cccc(C(C)(F)F)c3)C2=O)cc1-c1ncco1` (stereo unspecified), the IC50 turned out to be 1.1 nM.

For `COc1ccc(N2N=C(C)C(C(=O)Nc3cccc(-c4ccco4)c3)C2=O)cn1` (stereo unspecified), the IC50 turned out to be 3.9 nM. The value for `COc1ccc(N2N=C(C)C(C(=O)Nc3cccc(C(C)(F)F)c3)C2=O)cc1OC` (stereo unspecified) was 1 nM.

As to `COc1ccc(N2N=C(C)C(C(=O)Nc3cccc(C(C)(F)F)c3)C2=O)cc1` (stereo unspecified), the IC50 amounted to 4.5 nM. The value for `COc1ccc(N2N=C(C)C(C(=O)Nc3cccc(-c4ccco4)c3)C2=O)cc1` (stereo unspecified) was 3.2 nM.

As to `CC1=NN(c2ccc(OC(F)F)c(-c3cccnc3)c2)C(=O)C1C(=O)Nc1cccc(C(C)(F)F)c1` (stereo unspecified), the IC50 came out at 0.33 nM. Turning to `CC1=NN(c2ccc(OC(F)F)cc2)C(=O)C1C(=O)Nc1cccc(C(C)(F)F)c1` (stereo unspecified), the IC50 is 2.66 nM.
